Data: publication PMC6893898, “Receptor Interaction Profiles of 4-Alkoxy-Substituted 2,5-Dimethoxyphenethylamines and Related Amphetamines” (Frontiers in Pharmacology, 2019)
Entries after “also recorded” stand apart in the source; their conditions may differ. Read-outs that look alike come from different tables or passages of the source.

Key:
humans = settings: ref Shulgin and Shulgin, 1991, cited from earlier work; for Psychoactivity in humans: at the doses tested
head-twitch response = test system: head-twitch response; set-up: method as in Halberstadt et al., 2019; settings: ref Halberstadt et al., 2019; cited from earlier work
5-HT1A receptor [1] = molecular target: T1, 5-HT1A receptor (Homo sapiens, UniProt P08908); settings: cited from earlier work
T1 construct: expressed in transfected cells; host or cells: HEK 293 (membrane preparation)
T1 sequence (P08908 1-422): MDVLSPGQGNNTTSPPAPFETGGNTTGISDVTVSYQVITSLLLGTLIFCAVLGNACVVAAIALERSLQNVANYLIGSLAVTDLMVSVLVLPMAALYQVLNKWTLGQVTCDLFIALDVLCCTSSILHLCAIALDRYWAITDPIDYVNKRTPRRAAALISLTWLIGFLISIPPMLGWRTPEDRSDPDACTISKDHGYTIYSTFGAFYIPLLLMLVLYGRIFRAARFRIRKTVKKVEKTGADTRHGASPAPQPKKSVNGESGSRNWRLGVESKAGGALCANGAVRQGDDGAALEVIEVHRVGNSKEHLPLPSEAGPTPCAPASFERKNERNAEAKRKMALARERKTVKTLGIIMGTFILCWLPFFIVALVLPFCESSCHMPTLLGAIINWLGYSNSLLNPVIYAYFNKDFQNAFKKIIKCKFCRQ

human 5-HT2B receptor [2] = molecular target: T2, human 5-HT2B receptor (Homo sapiens, UniProt P41595); set-up: method as in Luethi et al., 2018; settings: ref Luethi et al., 2018, cited from earlier work
T2 construct: expressed in transfected cells; host or cells: HEK 293

α1A adrenergic receptor [3] = molecular target: T3, α1A adrenergic receptor (Homo sapiens, UniProt P35348); set-up: method as in Simmler et al., 2013; settings: read-out: α1A Ki ± SD; [3H]prazosin; ref Simmler et al., 2013; cited from earlier work
T3 construct: expressed in transfected cells; host or cells: Chinese hamster ovary cell line (membrane preparation)
T3 sequence (P35348 1-466): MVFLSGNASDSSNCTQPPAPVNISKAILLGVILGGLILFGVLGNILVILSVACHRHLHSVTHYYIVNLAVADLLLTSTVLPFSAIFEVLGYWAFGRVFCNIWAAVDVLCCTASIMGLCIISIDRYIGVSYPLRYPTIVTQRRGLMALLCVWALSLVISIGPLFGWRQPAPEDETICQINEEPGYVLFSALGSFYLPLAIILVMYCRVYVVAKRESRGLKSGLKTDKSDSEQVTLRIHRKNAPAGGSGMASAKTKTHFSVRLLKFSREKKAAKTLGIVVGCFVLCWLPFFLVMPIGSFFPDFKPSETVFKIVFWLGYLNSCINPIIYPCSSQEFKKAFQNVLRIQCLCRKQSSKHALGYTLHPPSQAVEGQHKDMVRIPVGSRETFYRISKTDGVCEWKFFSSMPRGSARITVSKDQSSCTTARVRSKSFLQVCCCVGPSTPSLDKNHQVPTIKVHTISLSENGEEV

α2A adrenergic receptor [4] = molecular target: T4, α2A adrenergic receptor (Homo sapiens, UniProt P08913); set-up: method as in Simmler et al., 2013; settings: read-out: α2A Ki ± SD; [3H]rauwolscine; ref Simmler et al., 2013; cited from earlier work
T4 construct: expressed in transfected cells; host or cells: Chinese hamster lung cell line (membrane preparation)
T4 sequence (P08913 1-465): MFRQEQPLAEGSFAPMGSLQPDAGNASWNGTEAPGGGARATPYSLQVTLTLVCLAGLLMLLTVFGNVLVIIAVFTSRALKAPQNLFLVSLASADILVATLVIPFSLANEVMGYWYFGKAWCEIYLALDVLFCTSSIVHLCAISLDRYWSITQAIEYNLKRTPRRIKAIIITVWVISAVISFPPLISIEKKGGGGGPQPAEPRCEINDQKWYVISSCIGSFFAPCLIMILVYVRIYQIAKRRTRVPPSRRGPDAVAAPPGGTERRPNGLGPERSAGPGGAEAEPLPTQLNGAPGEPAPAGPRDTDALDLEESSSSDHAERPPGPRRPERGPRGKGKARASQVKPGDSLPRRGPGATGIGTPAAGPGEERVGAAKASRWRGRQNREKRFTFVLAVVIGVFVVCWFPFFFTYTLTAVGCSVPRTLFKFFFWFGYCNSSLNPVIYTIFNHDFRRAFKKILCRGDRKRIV

hDAT [5] = molecular target: T5, hDAT (Homo sapiens, UniProt Q01959); set-up: expressed in transfected cells; host or cells: HEK 293 (membrane preparation); settings: read-out: DAT uptake inhibition EC50; known low potency in this assay; no reference given; cited from earlier work
dopaminergic D2 receptor [6] = molecular target: T6, dopaminergic D2 receptor (Homo sapiens, UniProt P14416); set-up: method as in Simmler et al., 2013; settings: read-out: D2 Ki ± SD; [3H]spiperone; ref Simmler et al., 2013; cited from earlier work
T6 construct: expressed in transfected cells; host or cells: HEK 293 (membrane preparation)

hDAT [7] = molecular target: T5, hDAT; set-up: expressed in transfected cells; host or cells: HEK 293 (membrane preparation); method as in Simmler et al., 2013; settings: [3H]WIN35,428; ref Simmler et al., 2013; read-out: hDAT Ki ± SD; cited from earlier work
hNET [8] = molecular target: T7, hNET (Homo sapiens, UniProt P23975); set-up: expressed in transfected cells; host or cells: HEK 293 (membrane preparation); method as in Simmler et al., 2013; settings: read-out: hNET Ki ± SD; N-methyl-[3H]nisoxetine; ref Simmler et al., 2013; cited from earlier work
hNET [9] = molecular target: T7, hNET; assay: Monoamine uptake transporter inhibition, [3H]norepinephrine, HEK 293 cells; settings: 10 µM
hDAT [10] = molecular target: T5, hDAT; assay: Monoamine uptake transporter inhibition, [3H]dopamine, HEK 293 cells; settings: 10 µM
rat TAAR1 [11] = molecular target: T8, rat TAAR1 (Rattus norvegicus, UniProt Q923Y9); set-up: method as in Simmler et al., 2013; settings: read-out: rat TAAR1 Ki ± SD; [3H]RO5166017; ref Simmler et al., 2013; cited from earlier work
T8 construct: expressed in transfected cells; host or cells: HEK 293 (membrane preparation)

hSERT [12] = molecular target: T9, hSERT (Homo sapiens, UniProt P31645); assay: Monoamine uptake transporter inhibition, [3H]5-HT, HEK 293 cells; settings: 10 µM
mouse TAAR1 [13] = molecular target: T10, mouse TAAR1 (Mus musculus, UniProt Q923Y8); set-up: method as in Simmler et al., 2013; settings: read-out: mouse TAAR1 Ki ± SD; [3H]RO5166017; ref Simmler et al., 2013; cited from earlier work
T10 construct: expressed in transfected cells; host or cells: HEK 293 (membrane preparation)

hSERT [14] = molecular target: T9, hSERT; assay: Radioligand binding, SERT ([3H]citalopram); set-up: expressed in transfected cells; host or cells: HEK 293 (membrane preparation)
α1A adrenergic receptor [15] = molecular target: T3, α1A adrenergic receptor; assay: Radioligand binding, α1A adrenergic receptor ([3H]prazosin)
5-HT1A receptor [16] = molecular target: T1, 5-HT1A receptor; assay: Radioligand binding, 5-HT1A receptor ([3H]8-OH-DPAT)
rat TAAR1 [17] = molecular target: T8, rat TAAR1; assay: Radioligand binding, rat TAAR1 ([3H]RO5166017)
dopaminergic D2 receptor [18] = molecular target: T6, dopaminergic D2 receptor; assay: Radioligand binding, dopaminergic D2 receptor ([3H]spiperone)
α2A adrenergic receptor [19] = molecular target: T4, α2A adrenergic receptor; assay: Radioligand binding, α2A adrenergic receptor ([3H]rauwolscine)
mouse TAAR1 [20] = molecular target: T10, mouse TAAR1; assay: Radioligand binding, mouse TAAR1 ([3H]RO5166017)
hDAT [21] = molecular target: T5, hDAT; assay: Radioligand binding, DAT ([3H]WIN35,428); set-up: expressed in transfected cells; host or cells: HEK 293 (membrane preparation)
hNET [22] = molecular target: T7, hNET; assay: Radioligand binding, NET (N-methyl-[3H]nisoxetine); set-up: expressed in transfected cells; host or cells: HEK 293 (membrane preparation)
human 5-HT2B receptor [23] = molecular target: T2, human 5-HT2B receptor; assay: Activity at the 5-HT2B receptor (FLIPR calcium, HEK 293 cells); assay type: cell-based
Protocol: Activity at the 5-HT2B receptor was examined as previously described ([Luethi et al., 2018]). In summary, HEK 293 cells expressing the human 5-HT2B receptor were seeded at a density of 50,000 cells per well in 96-well poly-D-lysine-coated plates overnight at 37°C. The cells were then incubated in growth medium consisting of high glucose Dulbecco’s modified Eagle’s medium (DMEM) (Invitrogen, Zug, Switzerland), 10% fetal calf serum (non-dialyzed, heat-inactivated), 250 mg/l Geneticin and 10 ml/l PenStrep (Gibco), overnight at 37°C. After removal of the growth medium via snap inversion, calcium indicator Fluo-4-solution (100 µl) was injected into each well (Molecular Probes, Eugene, OR, USA) and incubated for 45 min at 31°C. Afterwards, the Fluo-4 solution was removed (snap inversion) and a further 100 µl of the Fluo-4 solution was added and incubated (45 min, 31°C). Thereafter, using the EMBLA cell washer, the cells were washed just before testing with HBSS and 20 mM HEPES and exposed to 100 µl of assay buffer. The well plate was positioned in the FLIPR and while online, 25 µl of the test compounds diluted in assay buffer were added. Concentration-response curves were calculated using nonlinear regression, and EC50 values were obtained. The maximal activity at the receptors was calculated relative to 5-HT activity which was defined as 100%.

T2 sequence (P41595 whole entry): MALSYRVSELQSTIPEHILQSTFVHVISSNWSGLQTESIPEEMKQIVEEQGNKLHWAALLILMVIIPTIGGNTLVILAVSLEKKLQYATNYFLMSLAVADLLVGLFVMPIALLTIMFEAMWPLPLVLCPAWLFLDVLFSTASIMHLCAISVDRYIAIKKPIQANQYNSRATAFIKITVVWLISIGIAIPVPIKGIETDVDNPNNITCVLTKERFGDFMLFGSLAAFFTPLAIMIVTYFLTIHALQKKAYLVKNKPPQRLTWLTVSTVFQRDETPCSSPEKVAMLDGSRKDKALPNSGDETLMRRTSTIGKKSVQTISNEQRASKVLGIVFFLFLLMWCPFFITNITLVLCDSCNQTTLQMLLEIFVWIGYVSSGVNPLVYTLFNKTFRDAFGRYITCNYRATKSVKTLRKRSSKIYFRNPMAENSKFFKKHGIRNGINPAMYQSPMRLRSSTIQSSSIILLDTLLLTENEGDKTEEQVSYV
T5 sequence (Q01959 whole entry): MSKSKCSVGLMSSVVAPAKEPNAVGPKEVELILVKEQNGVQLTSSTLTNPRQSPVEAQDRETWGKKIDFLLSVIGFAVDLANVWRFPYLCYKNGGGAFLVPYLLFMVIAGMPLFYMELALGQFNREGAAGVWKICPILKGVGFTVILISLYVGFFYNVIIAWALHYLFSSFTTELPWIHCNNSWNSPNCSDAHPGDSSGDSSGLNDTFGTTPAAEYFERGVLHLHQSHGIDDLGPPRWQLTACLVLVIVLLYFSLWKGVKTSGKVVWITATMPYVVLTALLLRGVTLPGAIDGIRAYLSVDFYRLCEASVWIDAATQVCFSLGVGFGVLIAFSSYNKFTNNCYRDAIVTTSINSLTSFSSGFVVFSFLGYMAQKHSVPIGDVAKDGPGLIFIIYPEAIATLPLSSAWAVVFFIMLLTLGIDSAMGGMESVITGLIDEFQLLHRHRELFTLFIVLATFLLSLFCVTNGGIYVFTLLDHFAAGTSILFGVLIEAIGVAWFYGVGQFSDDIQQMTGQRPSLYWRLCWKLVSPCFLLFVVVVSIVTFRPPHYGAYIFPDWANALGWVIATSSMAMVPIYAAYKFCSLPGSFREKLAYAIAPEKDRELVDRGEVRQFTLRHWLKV
T7 sequence (P23975 whole entry): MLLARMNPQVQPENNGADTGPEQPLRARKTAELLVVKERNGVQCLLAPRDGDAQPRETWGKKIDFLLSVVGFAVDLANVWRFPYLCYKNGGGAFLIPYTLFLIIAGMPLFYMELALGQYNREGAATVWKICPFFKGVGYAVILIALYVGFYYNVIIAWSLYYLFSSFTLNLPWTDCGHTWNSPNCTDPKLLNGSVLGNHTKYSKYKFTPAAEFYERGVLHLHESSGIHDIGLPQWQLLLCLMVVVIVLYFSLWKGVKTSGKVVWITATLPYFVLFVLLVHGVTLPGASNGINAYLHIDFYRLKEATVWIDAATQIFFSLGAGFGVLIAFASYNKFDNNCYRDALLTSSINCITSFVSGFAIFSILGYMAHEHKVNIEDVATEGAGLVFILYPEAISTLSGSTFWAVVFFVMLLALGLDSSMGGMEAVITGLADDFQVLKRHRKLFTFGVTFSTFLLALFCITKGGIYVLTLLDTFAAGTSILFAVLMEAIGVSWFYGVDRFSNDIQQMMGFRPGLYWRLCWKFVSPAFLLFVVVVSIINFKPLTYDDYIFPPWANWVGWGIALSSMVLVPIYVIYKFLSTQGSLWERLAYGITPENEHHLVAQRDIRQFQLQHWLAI
T8 sequence (Q923Y9 whole entry): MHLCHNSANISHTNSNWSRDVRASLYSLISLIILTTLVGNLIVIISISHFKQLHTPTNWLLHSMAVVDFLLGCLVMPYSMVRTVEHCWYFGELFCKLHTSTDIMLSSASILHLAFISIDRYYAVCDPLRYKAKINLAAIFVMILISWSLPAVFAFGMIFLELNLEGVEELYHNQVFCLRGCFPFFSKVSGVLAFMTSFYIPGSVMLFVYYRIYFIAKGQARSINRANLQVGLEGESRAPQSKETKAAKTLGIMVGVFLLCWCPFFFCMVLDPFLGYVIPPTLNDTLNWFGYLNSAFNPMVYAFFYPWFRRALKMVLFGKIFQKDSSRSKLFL
T9 sequence (P31645 whole entry): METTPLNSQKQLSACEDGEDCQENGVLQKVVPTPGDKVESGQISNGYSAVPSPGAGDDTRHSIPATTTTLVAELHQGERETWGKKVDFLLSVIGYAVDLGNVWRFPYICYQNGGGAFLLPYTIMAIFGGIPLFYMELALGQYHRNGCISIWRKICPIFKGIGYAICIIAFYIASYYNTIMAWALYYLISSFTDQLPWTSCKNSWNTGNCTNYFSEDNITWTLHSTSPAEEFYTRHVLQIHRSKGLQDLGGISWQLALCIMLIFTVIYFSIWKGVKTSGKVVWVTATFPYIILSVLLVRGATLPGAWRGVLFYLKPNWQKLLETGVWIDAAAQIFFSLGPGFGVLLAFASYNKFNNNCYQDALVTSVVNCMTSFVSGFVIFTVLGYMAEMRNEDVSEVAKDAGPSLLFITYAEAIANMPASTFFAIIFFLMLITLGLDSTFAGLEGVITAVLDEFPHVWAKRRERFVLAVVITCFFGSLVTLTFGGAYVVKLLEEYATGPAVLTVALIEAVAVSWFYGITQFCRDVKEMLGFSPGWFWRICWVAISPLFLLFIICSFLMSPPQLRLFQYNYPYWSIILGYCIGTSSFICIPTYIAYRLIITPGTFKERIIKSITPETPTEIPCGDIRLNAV
T6 sequence (P14416 whole entry): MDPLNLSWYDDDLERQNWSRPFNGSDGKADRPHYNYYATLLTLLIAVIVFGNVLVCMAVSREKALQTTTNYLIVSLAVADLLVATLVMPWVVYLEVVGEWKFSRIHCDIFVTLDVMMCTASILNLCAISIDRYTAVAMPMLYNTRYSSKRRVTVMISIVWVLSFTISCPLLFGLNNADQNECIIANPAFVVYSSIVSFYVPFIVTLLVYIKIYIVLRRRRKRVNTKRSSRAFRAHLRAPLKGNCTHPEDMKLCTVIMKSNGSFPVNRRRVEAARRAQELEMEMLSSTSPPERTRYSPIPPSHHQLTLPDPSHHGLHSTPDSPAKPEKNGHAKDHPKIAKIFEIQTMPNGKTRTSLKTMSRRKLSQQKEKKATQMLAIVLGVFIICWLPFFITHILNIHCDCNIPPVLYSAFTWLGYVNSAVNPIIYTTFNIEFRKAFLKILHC
T10 sequence (Q923Y8 whole entry): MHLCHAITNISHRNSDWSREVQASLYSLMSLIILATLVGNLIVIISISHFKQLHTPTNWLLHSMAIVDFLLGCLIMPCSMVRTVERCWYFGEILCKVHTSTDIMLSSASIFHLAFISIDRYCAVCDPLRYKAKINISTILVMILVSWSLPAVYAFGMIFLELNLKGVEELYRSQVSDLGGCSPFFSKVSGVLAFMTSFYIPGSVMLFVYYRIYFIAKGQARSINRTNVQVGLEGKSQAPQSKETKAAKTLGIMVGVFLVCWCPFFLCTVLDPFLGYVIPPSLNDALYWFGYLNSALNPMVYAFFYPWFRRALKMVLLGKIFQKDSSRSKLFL

Compound: CCCOc1cc(OC)c(CC(C)N)cc1OC (stereo not shown) [MPM, 2,5-dimethoxy-4-propoxyampehtamine]
- Psychoactivity in humans (humans): no psychoactive effects
- Behavioral potency in head-twitch response (head-twitch response): equipotent

Compound: CCCCOc1cc(OC)c(CC(C)N)cc1OC (stereo not shown) [MBM, 4-butoxy-2,5-dimethoxyamphetamine]
- Psychoactivity in humans (humans): no psychoactive effects

Compound: COc1cc(OC)c(OC)cc1CCN [2C-O-1, 2,4,5-trimethoxyphenethylamine]
- Psychoactivity in humans (humans): fairly inactive in humans; also recorded: not psychoactive in humans

Compound: COc1cc(CCN)c(OC)cc1Br [2C-B, 4-bromo-2,5-dimethoxyphenethylamine]
- Ki (5-HT1A receptor [1]; read-out: h5-HT1A Receptor binding Ki ± SD, [3H]8-OH-DPAT, ref Luethi et al., 2018): 0.311 ± 0.046 µM
- EC50 (human 5-HT2B receptor [2]; read-out: h5-HT2B Activation potency EC50 ± SD): 0.075 ± 0.014 µM
- h5-HT2B Activation efficacy max ± SD (human 5-HT2B receptor [2]; relative to 5-HT): 52 ± 26%

Compound: COc1cc(CCN)cc(OC)c1OC [mescaline, 3,4,5-trimethoxyphenethylamine]
- Psychoactive oral dose in humans (humans; oral, humans): > 200 mg

Compound: COc1cc(OC(C)C)c(OC)cc1CCN [2C-O-4, 2,5-dimethoxy-4-isopropoxyphenethylamine]
- Psychoactivity in humans (humans): fairly inactive in humans; also recorded: not psychoactive in humans

Compound: CCOc1cc(OC)c(CC(C)N)cc1OC (stereo not shown) [MEM, 2,5-dimethoxy-4-ethoxyamphetamine]
- Psychoactivity in humans (humans): displayed psychedelic activity
- Behavioral potency in head-twitch response (head-twitch response): equipotent

Compound: CNC(C)Cc1ccc2c(c1)OCO2 (stereo not shown) [MDMA]
- Ki (α1A adrenergic receptor [3]): > 6 µM
- Ki (α2A adrenergic receptor [4]): 15 ± 0.2 µM
- EC50 (hDAT [5]): 17 µM
- Ki (dopaminergic D2 receptor [6]): 25.2 ± 2 µM
- Ki (hDAT [7]): 6.5 ± 2.5 µM
- Ki (hNET [8]): 30.5 ± 8 µM
- Effect on NE uptake into the cells (hNET [9]): markedly reduced
- Effect on DA uptake into the cells (hDAT [10]): moderately reduced
- Ki (rat TAAR1 [11]): 0.37 ± 0.12 µM
- Effect on 5-HT uptake into the cells (hSERT [12]): markedly reduced
- Ki (mouse TAAR1 [13]): 2.4 ± 1.1 µM

Compound: CC(N)Cc1ccccc1 (stereo not shown) [amphetamine]
- Ki (5-HT1A receptor [1]; read-out: 5-HT1A receptor Ki, ref Simmler et al., 2013): 6.7 µM

Compound: COc1cc(OC)c(OC)cc1CC(C)N (stereo not shown) [TMA-2, 2,4,5-trimethoxyamphetamine]
- Ki (hSERT [14]): > 7.5 µM
- Ki (α1A adrenergic receptor [15]): > 6.5 µM
- Ki (5-HT1A receptor [16]): > 17 µM
- Psychoactivity in humans (humans): displayed psychedelic activity
- Potency in humans relative to 3,4,5-trimethoxyamphetamine (TMA) (humans; EMCDDA, 2004): roughly 6 times
- Ki (rat TAAR1 [17]): 3.1 ± 0.1 µM
- Ki (dopaminergic D2 receptor [18]): > 13 µM
- Behavioral potency in head-twitch response (head-twitch response): equipotent
- Ki (α2A adrenergic receptor [19]): > 4.7 µM
- Ki (mouse TAAR1 [20]): > 4.4 µM
- Ki (hDAT [21]): > 8.5 µM
- Ki (hNET [22]): > 8.7 µM
- EC50 (human 5-HT2B receptor [23]): 0.27 µM
- Emax (human 5-HT2B receptor [23]; HEK293, relative to 5-HT = 100%, read-out: h5-HT2B Activation efficacy max ± SD): 78 ± 5%
